Some results are limits rather than exact numbers.

The target in this assay is T1, recombinant human ARG1 (Homo sapiens, UniProt P05089).
T1 construct: purchased R&D System 5868-AR-010
T1 sequence (P05089 1-322): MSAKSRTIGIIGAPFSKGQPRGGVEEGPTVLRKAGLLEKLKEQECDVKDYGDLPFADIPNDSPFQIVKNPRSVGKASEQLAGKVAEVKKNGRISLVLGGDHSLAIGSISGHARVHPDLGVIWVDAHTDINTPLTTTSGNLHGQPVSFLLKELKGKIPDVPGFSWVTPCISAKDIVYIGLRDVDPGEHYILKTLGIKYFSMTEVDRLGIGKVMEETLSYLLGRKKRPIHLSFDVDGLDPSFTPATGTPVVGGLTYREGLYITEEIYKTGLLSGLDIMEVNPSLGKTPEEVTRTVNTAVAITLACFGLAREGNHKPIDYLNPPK
Briefly: Arginase enzymatic assay in vitro, recombinant human ARG1 (colorimetric urea detection). The following applies: recombinant human arginase 1; read-out: IC50 Inh rhARG1. In kind it is biochemical. The text has this:
Arginase catalyzes the hydrolysis of L-arginine into L-ornithine and urea. Urea amount produced by this reaction can be detected using a colorimetric assay and used as an indirect measurement of arginase activity. An adapted protocol from (Baggio, R., et al., J Pharmacol Exp Ther, 1999. 290(3): p. 1409-16) was used for the testing the ability of exemplary compounds of the invention to inhibit arginase enzymes from a variety of sources including recombinant human ARG1 and 2, lysates of human red blood cells (RBC) and intact murine macrophages, as described below.
Compounds of the invention were prepared from powder as 10 mM stock solutions in DMSO and stored in presence of N2 neutral atmosphere at −80° C. For IC50 determination and just before the assay, exemplary compounds were successively diluted to get the following concentrations: 210, 70, 21, 7, 2.1, 0.7, 0.21, 0.07, 0.021, 0.007, 0.0021 and 0.0007 μM (i.e., final concentrations in the wells of 30, 10, 3, 1, 0.3, 0.1, 0.03, 0.01, 0.003, 0.001, 0.0003, 0.0001 μM).
Assays were run in clear flat bottom 96-well plates (Nunclon, Cat. No. #167008) adding in each well the following solutions in this order: (1) 10 μl of Tris-HCl solution supplemented with 0.1% bovine serum albumin (BSA) containing 1.563 μg/ml recombinant human ARG1 (R&D System, Cat. No. #5868-AR-010), (2) 30 μl of Tris-HCl buffer containing 10 mM MnCl2 and (3) 10 μL of a pre-dilution of each test article or DMSO (vehicle). Compounds were allowed to interact with the enzyme-cofactor complex pre-incubating the plate at 37° C. for 30 min. To start the reaction, 20 μl of 50 mM L-arginine (Sigma Aldrich Cat. #A5006-100G) were added to each well in exception of the blank reaction (see below). All reactions were allowed to happen for 1 h at 37° C. To detect the urea production, reactions were stopped by adding 200 μl of a mixture of reagent A (4 mM o-phthalaldehyde in 50 mM Boric Acid, 1 M Sulfuric Acid, 0.03% Brij-35 (w/v)) and reagent B (4 mM N-(1-naphthyl)ethylenediamine in 50 mM Boric Acid, 1 M Sulfuric Acid, 0.03% Brij-35 (w/v)) in equal proportion. Color product was developed for 1 h at room temperature (RT) protected from light and then absorbance at 520 nm was measured using a Multifunction Microplate Reader (Synergy 4, Bioteck). Blank reactions were carried out by adding the L-arginine substrate only after the addition of mixture A-B. All reactions were carried out in duplicates.
The inhibition of urea production was calculated subtracting the absorbance from the blank reaction (zero enzymatic urea production) to the absorbance from all reactions and it was expressed as the percentage of the absorbance from the reaction containing the test article with respect to the absorbance from vehicle reaction (maximum of urea production).
The term IC50 denotes the concentration that gives 50% inhibition. For `NC(CCCCB(O)O)(C(=O)O)C1CCN(C2CCCc3cc(Cl)ccc32)CC1` (single isomer, unassigned) [Compound 17, 2-amino-6-borono-2-(1-(6-chloro-1,2,3,4-tetrahydronaphthalen-1-yl)piperidin-4-yl)hexanoic acid], the IC50 is under 500 nM.

In the case of `NC(CCCCB(O)O)(C(=O)O)C1CCN(C2CCc3ccccc32)CC1` (single isomer, unassigned) [Compound 2, 2-amino-6-borono-2-(1-(2,3-dihydro-1H-inden-1-yl)piperidin-4-yl)hexanoic acid], the IC50 was under 500 nM.

With `NC(CCCCB(O)O)(C(=O)O)C1CCN(C2CCCc3ccccc32)CC1` (single isomer, unassigned) [Compound 4, 2-amino-6-borono-2-(1-(1,2,3,4-tetrahydronaphthalen-1-yl)piperidin-4-yl)hexanoic acid], the IC50 was under 500 nM.

Take `NC(CCCCB(O)O)(C(=O)O)C1CCN(C2CCc3cc(C(F)(F)F)ccc32)CC1` (single isomer, unassigned) [Compound 85, 2-amino-6-borono-2-[1-[5-(trifluoromethyl)indan-1-yl]-4-piperidyl]hexanoic acid]: the IC50 is under 500 nM.

On to `NC(CCCCB(O)O)(C(=O)O)C1CCN(C2CCc3ccccc32)CC1` (stereo not shown) [Compound 1, 2-amino-6-borono-2-(1-(2,3-dihydro-1H-inden-1-yl)piperidin-4-yl)hexanoic acid], for which the IC50 was under 500 nM.

For the compound `CC(c1ccccc1)N1CCC(C(N)(CCCCB(O)O)C(=O)O)CC1` (single isomer, unassigned) [Compound 10, 2-amino-6-borono-2-(1-(1-phenylethyl)piperidin-4-yl)hexanoic acid], the IC50 is under 500 nM.

As to `NC(CCCCB(O)O)(C(=O)O)C1CCN(C2CCc3cc(Cl)ccc32)CC1` (single isomer, unassigned) [Compound 14, 2-amino-6-borono-2-[1-(5-chloroindan-1-yl)-4-piperidyl]hexanoic acid], the IC50 was under 500 nM.

With `NC(CCCCB(O)O)(C(=O)O)C1CCN(C2CCCc3ccc(F)cc32)CC1` (single isomer, unassigned) [Compound 83, 2-amino-6-borono-2-(1-(7-fluoro-1,2,3,4-tetrahydronaphthalen-1-yl)piperidin-4-yl)hexanoic acid], the IC50 is under 500 nM.

For `NC(CCCCB(O)O)(C(=O)O)C1CCN(C2CCCCc3ccccc32)CC1` (single isomer, unassigned) [Compound 84, 2-amino-6-borono-2-(1-(6,7,8,9-tetrahydro-5H-benzo[7]annulen-5-yl)piperidin-4-yl)hexanoic acid], the IC50 is under 500 nM.

On to `CNC(CCCCB(O)O)(C(=O)O)C1CCN(C2CCCc3ccccc32)CC1` (single isomer, unassigned) [Compound 79, 6-borono-2-(methylamino)-2-(1-(1,2,3,4-tetrahydronaphthalen-1-yl)piperidin-4-yl)hexanoic acid], for which the IC50 was under 500 nM.

Take `CC(c1ccccc1)N1CCC(C(N)(CCCCB(O)O)C(=O)O)CC1` (single isomer, unassigned) [Compound 11, 2-amino-6-borono-2-(1-(1-phenylethyl)piperidin-4-yl)hexanoic acid]: the IC50 was over 5000 nM.

`NC(CCCCB(O)O)(C(=O)O)C1CCN(C2CCCc3ccccc32)CC1` (single isomer, unassigned) [Compound 5, 2-amino-6-borono-2-(1-(1,2,3,4-tetrahydronaphthalen-1-yl)piperidin-4-yl)hexanoic acid]: the IC50 was under 500 nM.

For the compound `NC(CCCCB(O)O)(C(=O)O)C1CCN(C2CCCc3ccccc32)CC1` (single isomer, unassigned) [Compound 6, 2-amino-6-borono-2-(1-(1,2,3,4-tetrahydronaphthalen-1-yl)piperidin-4-yl)hexanoic acid], the IC50 is over 5000 nM.

As for `CC1(C)OB(CCCCC(N)(C(=O)O)C2CCN(C3CCCc4ccccc43)CC2)OC1(C)C` (stereo not shown) [Compound 77, 2-amino-2-(1-(1,2,3,4-tetrahydronaphthalen-1-yl)piperidin-4-yl)-6-(4,4,5,5-tetramethyl-1,3,2-dioxaborolan-2-yl)hexanoic acid], the IC50 is under 500 nM.

Take `NC(CCCCB(O)O)(C(=O)O)C1CCN(C2CCc3ccccc32)CC1` (single isomer, unassigned) [Compound 3, 2-amino-6-borono-2-(1-(2,3-dihydro-1H-inden-1-yl)piperidin-4-yl)hexanoic acid]: the IC50 is over 5000 nM.

Turning to `CC(c1ccccc1)N1CCC(C(N)(CCCCB(O)O)C(=O)O)CC1` (stereo not shown) [Compound 9, 2-amino-6-borono-2-(1-(1-phenylethyl)piperidin-4-yl)hexanoic acid], the IC50 is under 500 nM.

(Values after patent US20220017541A1, “INHIBITORS OF ARGINASE” (Black Belt Tx Ltd, priority 2018, published 2022).)
